From US9618513B2, “Compositions and methods for detecting and treating colorectal cancer” (The Regents of the University of Michigan, priority 2014, dated 2017)

Assays:
DLD-1 colon cancer cells = test: Colon cancer sphere assay, DLD-1 cells; format: cell-based, human
Text: (§1) (A), IL-22 is expressed in colon cancer tissues. IL-22 mRNA was detected by real-time PCR in colon cancer tissues and peripheral blood. *P<0.05 compared to blood, 20 colon cancer patients. (B-D), Endogenous IL-22 promotes colon carcinogenesis. Single cells (10^7) isolated from colon cancer tissue were mixed with anti-IL-22 antibody or control mAb, and then subcutaneously injected to NSG mice. Tumor growth (B), incidence (C), and animal survival (D) are shown. (P<0.05 for all, n=5 per group). (E-G) Recombinant IL-22 promotes colon carcinogenesis. DLD-1 colon cancer cells (10^5) were pre-incubated with IL-22 (20 ng/ml) for 1 hour, and then subcutaneously injected to NSG mice. Tumor growth (E), incidence (F), and animal survival (G) are shown. (P<0.05 for all, n=5 per group). (H, I) IL-22 enhances colon cancer sphere formation. DLD-1 colon cancer cells were pre-incubated for 24 hours with IL-22. […] ALDH activity was determined by FACS based on aldefluor fluorescence. […] Results are expressed as fold changes of ALDH expression. […] The mRNA of stem cell core gene was detected by real-time PCR (K) and proteins were detected by western blotting (L, M). […]
(A) IL-22 induces H3K79me2 in colon cancer cells. […] Total histone modifications were analyzed by western blot. […] Sphere numbers were recorded. […] DOT1L complex gene expression was quantified by real-time PCR. […] Sphere numbers were recorded. […]

ALDH1 = test: ALDH activity by FACS (aldefluor fluorescence); format: cell-based, human; settings: DLD-1, HT29 and two primary colon cancer cell lines, IL-22 24 hours
Text: as §1, with “mice.” for “mice. Tumor growth (E), incidence (F), and animal survival (G) are shown. (P<0.05 for all, n=5 per group). (H, I) IL-22 enhances colon cancer sphere formation. DLD-1 colon cancer cells were pre-incubated for 24 hours with IL-22.”
(A, B) IL-22 is expressed by immune cells in colon cancer tissues. Different cell populations were sorted from colon cancer tissues and IL-22 expression was measured by real time PCR. […] IL-22 was detected via ELISA. […] IL-22 was detected with ELISA (D) or intracellular staining (E). […] IL-22 mRNA was detected by real time PCR (F) and protein by ELISA (G). […] IL-22 expression was quantified with real-time PCR in the migrated and non-migrated cells. […]

For `CC(C)N(CCCNC(=O)Nc1ccc(C(C)(C)C)cc1)C[C@H]1O[C@@H](n2ccc3c(N)ncnc32)[C@H](O)[C@@H]1O` [EPZ004777], the “sphere formation induced by IL-22” value (DLD-1 colon cancer cells; DLD-1 cells, in the presence of IL-22, inhibitor 10 uM) was “suppressed”.
In the case of “IL-22: recombinant IL-22 (R&D systems), cytokine interleukin-22”, the tumor sphere formation (DLD-1 colon cancer cells; DLD-1 pre-incubated 24 hours with IL-22, 2,000 cells) was “promoted tumor sphere formation in a dose dependent manner” and the “aldehyde dehydrogenase (ALDH1) activity” value (ALDH1) was “increased”.
